The assay addresses T1, Amine oxidase [flavin-containing] B (Bos taurus, UniProt P56560).
T1 sequence (P56560 whole entry): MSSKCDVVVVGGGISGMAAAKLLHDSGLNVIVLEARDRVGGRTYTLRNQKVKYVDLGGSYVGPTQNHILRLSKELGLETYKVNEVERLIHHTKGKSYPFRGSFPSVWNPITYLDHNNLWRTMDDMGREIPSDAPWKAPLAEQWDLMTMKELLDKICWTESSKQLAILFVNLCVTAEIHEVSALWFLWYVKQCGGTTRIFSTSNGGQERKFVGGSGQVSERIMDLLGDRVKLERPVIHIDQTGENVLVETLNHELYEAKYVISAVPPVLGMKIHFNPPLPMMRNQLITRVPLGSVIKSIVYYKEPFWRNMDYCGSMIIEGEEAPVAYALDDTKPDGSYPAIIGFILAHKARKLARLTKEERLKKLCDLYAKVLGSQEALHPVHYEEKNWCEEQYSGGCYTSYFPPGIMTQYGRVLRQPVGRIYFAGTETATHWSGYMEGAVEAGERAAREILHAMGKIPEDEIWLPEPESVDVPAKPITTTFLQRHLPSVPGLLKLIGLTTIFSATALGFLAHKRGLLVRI
Nature of the assay: Inhibitory activity against Monoamine oxidase B isolated from beef liver mitochondria was determined.

For the compound `CC[C@]1(O)C[C@@H]2CN(CCc3c([nH]c4ccccc34)[C@@](C(=O)OC)(c3cc4c(cc3OC)N(C)[C@H]3[C@@](O)(C(=O)OC)[C@H](OC(C)=O)[C@]5(CC)C=CCN6CC[C@]43[C@@H]65)C2)C1` [VINBLASTINE], affinity was put at a Ki of 77 µM.

The values above are taken from ChEMBL document CHEMBL1124812, “Vinblastine and vincristine are inhibitors of monoamine oxidase B” (J Med Chem, 1990).
